Earlier results on 1 molecule are cited in US20160166510A1, “STABILIZED PROLONGED RELEASE PHARMACEUTICAL COMPOSITION COMPRISING ATYPICAL ANTIPSYCHOTIC” (INVENTIA HEALTHCARE PRIVATE LIMITED, priority 2010, published 2016).

Read-outs that look alike come from different tables or passages of the source.

Consider `Cc1nc2n(c(=O)c1CCN1CCC(c3noc4cc(F)ccc34)CC1)CCCC2O` (stereo not drawn) [Paliperidone], for which the Solubility result is, setting by setting: (in 0.1 N HCl) “sparingly soluble”; (in methylene chloride) “sparingly soluble”; (in water) “practically insoluble”.
